According to ChEMBL document CHEMBL5247653, “Discovery of Clinical Candidate ACT-777991, a Potent CXCR3 Antagonist for Antigen-Driven and Inflammatory Pathologies” (J Med Chem, 2023):
The source made the active and inactive calls. No cut-off for these calls is given here.

Columns and labels:
[1] = Metabolic stability in human hepatocyte assessed as M2 metabolite formation at 1 uM and measured upto 15 mins in presence of NADPH regenerating system by LC-MS/MS analysis; format: ADME, cell-based; conditions: hepatocytes, 0.25 h
[2] = Metabolic stability in human liver microsomes assessed as M3 metabolite formation at 1 uM and measured upto 15 mins in presence of NADPH regenerating system by LC-MS/MS analysis; format: ADME, Microsome; conditions: 0.25 h
Cytochrome P450 2D6 = Cytochrome P450 2D6 (Homo sapiens, UniProt P10635); assay: Time dependent inhibition of CYP2D6 (unknown origin); format: ADME
Sequence of Cytochrome P450 2D6 (P10635 whole entry): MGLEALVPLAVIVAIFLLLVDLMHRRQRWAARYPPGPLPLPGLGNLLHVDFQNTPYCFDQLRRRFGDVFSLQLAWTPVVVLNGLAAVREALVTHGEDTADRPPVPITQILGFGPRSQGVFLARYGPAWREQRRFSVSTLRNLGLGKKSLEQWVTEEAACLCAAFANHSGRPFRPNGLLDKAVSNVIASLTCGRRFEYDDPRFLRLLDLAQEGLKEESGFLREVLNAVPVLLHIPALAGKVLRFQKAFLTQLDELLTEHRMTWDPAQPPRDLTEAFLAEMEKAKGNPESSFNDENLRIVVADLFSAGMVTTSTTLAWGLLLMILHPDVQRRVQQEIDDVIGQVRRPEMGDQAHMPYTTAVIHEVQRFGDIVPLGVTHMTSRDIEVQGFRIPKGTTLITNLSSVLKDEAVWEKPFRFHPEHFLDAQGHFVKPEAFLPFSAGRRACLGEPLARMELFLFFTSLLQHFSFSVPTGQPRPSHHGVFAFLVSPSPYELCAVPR

[3] = Cmax in Cynomolgus monkey at 1.0 mg/kg,iv or 1.25 mg/kg, po; format: ADME, organism-based, Macaca fascicularis; parameters: dose 1 mg/kg, route iv; conditions: in vivo
[4] = Clearance in Cynomolgus monkey at 1.0 mg/kg,iv or 1.25 mg/kg, po; format: ADME, organism-based, Macaca fascicularis; conditions: in vivo
[5] = Tmax in Cynomolgus monkey at 1.0 mg/kg,iv or 1.25 mg/kg, po; format: ADME, organism-based, Macaca fascicularis; conditions: in vivo
[6] = Clearance in Beagle dog at 2.5 mg/kg,iv or 2.5 mg/kg, po; format: ADME, organism-based, Canis lupus familiaris; conditions: in vivo
[7] = Total clearance in Wistar rat plasma at 0.5 mg/kg, iv; format: ADME, organism-based
[8] = Unbound clearance in Wistar rat plasma at 0.5 mg/kg, iv; format: ADME, organism-based; conditions: in vivo
[9] = AUC (0 to last) in Beagle dog at 2.5 mg/kg,iv or 2.5 mg/kg, po; format: ADME, organism-based, Canis lupus familiaris; parameters: dose 2.5 mg/kg, route iv; conditions: in vivo
[10] = molecular target: T1, C-X-C chemokine receptor type 3 (Homo sapiens, UniProt P49682); assay: Antagonist activity at CXCR3 (unknown origin) in human T cells in venous blood assessed as receptor internalization incubated for 30 mins in presence of CXCL10 by flow cytometric analysis; format: cell-based, T cell
T1 sequence (P49682 whole entry): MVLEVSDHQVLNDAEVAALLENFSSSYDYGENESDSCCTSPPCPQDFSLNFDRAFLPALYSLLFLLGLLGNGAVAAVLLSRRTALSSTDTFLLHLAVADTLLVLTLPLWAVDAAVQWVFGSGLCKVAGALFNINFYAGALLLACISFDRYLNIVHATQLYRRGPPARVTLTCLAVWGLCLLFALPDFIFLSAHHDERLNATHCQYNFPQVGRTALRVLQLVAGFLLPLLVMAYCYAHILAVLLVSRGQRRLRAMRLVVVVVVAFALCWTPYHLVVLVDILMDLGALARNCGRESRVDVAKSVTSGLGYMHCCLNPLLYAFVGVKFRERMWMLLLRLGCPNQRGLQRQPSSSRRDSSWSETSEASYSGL

CYP3A4 = CYP3A4 (Homo sapiens, UniProt P08684); assay: […] recombinant human CYP3A4 mediated drug metabolism in human liver microsomes assessed as intrinsic clearance at 1 uM incubated for 45 mins in presence of NADPH regenerating system by LC-MS/MS analysis; format: ADME, Microsome; conditions: read-out: CLH
Sequence of CYP3A4 (P08684 whole entry): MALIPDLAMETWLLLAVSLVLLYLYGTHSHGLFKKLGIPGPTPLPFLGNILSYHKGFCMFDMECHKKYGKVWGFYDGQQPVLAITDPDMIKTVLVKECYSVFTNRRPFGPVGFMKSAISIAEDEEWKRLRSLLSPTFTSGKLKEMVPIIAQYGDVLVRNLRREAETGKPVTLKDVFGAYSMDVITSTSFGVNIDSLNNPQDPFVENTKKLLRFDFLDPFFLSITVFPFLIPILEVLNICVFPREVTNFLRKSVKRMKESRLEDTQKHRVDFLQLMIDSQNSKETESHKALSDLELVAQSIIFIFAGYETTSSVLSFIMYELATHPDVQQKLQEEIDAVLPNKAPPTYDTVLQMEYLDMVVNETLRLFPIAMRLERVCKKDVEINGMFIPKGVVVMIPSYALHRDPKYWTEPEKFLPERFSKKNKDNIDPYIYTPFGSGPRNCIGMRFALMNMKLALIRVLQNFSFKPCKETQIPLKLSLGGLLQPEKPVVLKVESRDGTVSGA

[11] = AUC (0 to last) in Wistar rat at 3 mg/kg,iv or 3 mg/kg, po; format: ADME, organism-based; parameters: dose 3 mg/kg, route iv; conditions: in vivo
NIH3T3 = assay: Phototoxicity in BALB/c mouse 3T3 cells upto 100 ug/ml in presence of irradiation; format: toxicity, cell-based; conditions: dose < 100 µg/ml
[12] = molecular target: T2, C-X-C chemokine receptor type 3 (Homo sapiens) (UniProt P49682); assay: Binding affinity to human CXCR3 expressed in CHO-K1 cell membrane assessed as […] (Kon) using tritium-labeled ligand by […] assay; format: cell membranes; conditions: filed as antagonist
T2 sequence (whole entry): T1 sequence (P49682 whole entry)

[13] = Protein binding in dog plasma assessed as fraction unbound at 0.1 to 300 ug/ml using 14C-labeled ligand by rapid equilibrium dialysis; format: ADME, cell-free, Canis lupus familiaris; conditions: at 0.1 to 300 µg/mL, dose 0.1-300 µg/ml
[14] = molecular target: C-X-C chemokine receptor type 6 (Homo sapiens) (UniProt O00574); assay: Binding affinity to CXCR6 (unknown origin) at 10 uM by radioligand binding assay
Sequence of C-X-C chemokine receptor type 6 (Homo sapiens) (O00574 whole entry, looked up): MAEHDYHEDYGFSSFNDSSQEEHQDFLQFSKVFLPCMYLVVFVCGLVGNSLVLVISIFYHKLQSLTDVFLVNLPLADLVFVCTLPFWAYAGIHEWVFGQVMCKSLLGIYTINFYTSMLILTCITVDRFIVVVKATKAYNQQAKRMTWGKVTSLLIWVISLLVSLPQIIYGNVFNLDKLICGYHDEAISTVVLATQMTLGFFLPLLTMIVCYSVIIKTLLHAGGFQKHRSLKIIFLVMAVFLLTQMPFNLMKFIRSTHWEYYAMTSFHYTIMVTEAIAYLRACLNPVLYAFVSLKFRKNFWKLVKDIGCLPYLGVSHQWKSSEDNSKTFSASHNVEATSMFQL

[15] = molecular target: T3, C-X-C chemokine receptor type 3 (Canis lupus familiaris, UniProt Q5KSK8); assay: Antagonist activity at dog CXCR3 expressed in CHO-K1 cells assessed as reduction in CXCL11 induced calcium flux by FLIPR method; format: cell-based
T3 sequence (Q5KSK8 whole entry): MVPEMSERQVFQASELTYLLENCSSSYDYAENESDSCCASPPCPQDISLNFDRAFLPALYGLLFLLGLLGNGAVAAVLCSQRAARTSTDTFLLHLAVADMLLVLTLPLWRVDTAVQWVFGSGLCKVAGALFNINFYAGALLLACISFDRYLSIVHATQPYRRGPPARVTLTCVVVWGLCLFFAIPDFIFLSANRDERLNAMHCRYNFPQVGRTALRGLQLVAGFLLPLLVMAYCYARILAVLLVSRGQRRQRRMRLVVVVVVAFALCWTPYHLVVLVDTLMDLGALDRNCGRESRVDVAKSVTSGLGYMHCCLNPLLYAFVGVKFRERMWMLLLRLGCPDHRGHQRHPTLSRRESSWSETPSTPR

[16] = Cmin in LPS-induced DBA/1 mouse plasma at 0.06 microg/g, po bid preincubated for 3 days followed by LPS stimulation for 30 mins and measured after 72 hrs by flow cytometry; format: ADME, organism-based; conditions: dose 0.06 µg/g, time 6 day, read-out: Cmin
[17] = Cmax in Wistar rat at 3 mg/kg,iv or 3 mg/kg, po; format: ADME, organism-based; parameters: dose 3 mg/kg, route iv; conditions: in vivo
[18] = Protein binding in human plasma assessed as fraction unbound at 20 ug/ml using 14C-labeled ligand by rapid equilibrium dialysis; format: ADME, cell-free; conditions: at 20 µg/mL
[19] = Metabolic stability in rat liver microsomes assessed as M3 metabolite formation at 1 uM and measured upto 15 mins in presence of NADPH regenerating system by LC-MS/MS analysis; format: ADME, Microsome; conditions: 0.25 h
Cytochrome P450 3A4 = Cytochrome P450 3A4 (Homo sapiens, UniProt P08684); assay: Competitive inhibition of CYP3A4 (unknown origin); format: ADME
Sequence of Cytochrome P450 3A4 (P08684 whole entry): as the sequence (P08684 whole entry) above

[20] = In vivo inhibition of hERG in dog assessed as increase in QTc interval at 24 ug/ml, iv; format: toxicity, organism-based, Canis lupus familiaris; conditions: at 24 µg/mL
[21] = molecular target: T3, C-X-C chemokine receptor type 3; assay: Antagonist activity at dog CXCR3 expressed in CHO-K1 cells assessed as reduction in CXCL10 induced calcium flux by FLIPR method; format: cell-based
[22] = Metabolic stability in dog liver microsomes assessed as intrinsic clearance at 1 uM and measured upto 15 mins in presence of NADPH regenerating system by LC-MS/MS analysis; format: ADME, Canis lupus familiaris, Microsome; conditions: read-out: CLH
[23] = molecular target: Chemerin-like receptor 1 (Homo sapiens) (UniProt Q99788); assay: Binding affinity to ChemR23 (unknown origin) at 10 uM by radioligand binding assay
Sequence of Chemerin-like receptor 1 (Homo sapiens) (Q99788 whole entry): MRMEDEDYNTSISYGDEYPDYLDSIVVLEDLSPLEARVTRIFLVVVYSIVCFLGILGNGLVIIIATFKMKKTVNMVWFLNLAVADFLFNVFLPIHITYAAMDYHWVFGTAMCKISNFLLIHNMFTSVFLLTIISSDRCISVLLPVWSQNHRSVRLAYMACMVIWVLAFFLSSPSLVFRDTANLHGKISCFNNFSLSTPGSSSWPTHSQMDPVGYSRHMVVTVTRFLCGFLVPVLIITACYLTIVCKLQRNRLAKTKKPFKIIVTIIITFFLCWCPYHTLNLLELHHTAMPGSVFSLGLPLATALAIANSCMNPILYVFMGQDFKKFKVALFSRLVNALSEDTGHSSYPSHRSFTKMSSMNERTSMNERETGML

[24] = Metabolic stability in dog hepatocytes assessed as intrinsic clearance per 10^6 cells at 1 uM by LC-MS/MS analysis; format: ADME, cell-based, Canis lupus familiaris, Hepatocyte
[25] = molecular target: T4, C-X-C chemokine receptor type 3 (Mus musculus) (UniProt O88410); assay: In vivo antagonist activity at CXCR3 in LPS-induced DBA/1 mouse model assessed as reduction in mouse CXCL10-mediated chemotaxis in CD8+ T cells at 0.06 microg/g, po bid preincubated for 3 days followed by LPS stimulation for 30 mins and measured after 3 days by flow cytometry; format: functional, organism-based; parameters: scale not given: the % may be the effect or the level left; conditions: T-cell, dose 0.06 µg/g, time 6.0 day
T4 sequence (whole entry): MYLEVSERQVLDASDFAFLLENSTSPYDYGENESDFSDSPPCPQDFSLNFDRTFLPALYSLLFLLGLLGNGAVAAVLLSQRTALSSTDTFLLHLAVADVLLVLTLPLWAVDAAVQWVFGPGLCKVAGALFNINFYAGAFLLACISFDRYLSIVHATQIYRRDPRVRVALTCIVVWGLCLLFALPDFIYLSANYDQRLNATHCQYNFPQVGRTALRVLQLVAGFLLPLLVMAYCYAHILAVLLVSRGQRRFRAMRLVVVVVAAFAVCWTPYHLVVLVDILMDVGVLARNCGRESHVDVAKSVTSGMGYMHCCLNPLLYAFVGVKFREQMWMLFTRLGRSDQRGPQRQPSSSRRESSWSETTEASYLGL

[26] = Volume of distribution at steady state in Wistar rat at 3 mg/kg,iv or 3 mg/kg, po; format: ADME, organism-based; conditions: in vivo, read-out: Vdss

Stability [1]: Unstable
Stability [2]: Unstable
IC50 (Cytochrome P450 2D6): > 50 µM
Cmax [3]: 735 ng/mL
clearance [4]: 5.3 mL/min/kg
Tmax [5]: 1.5 h
clearance [6]: 9.5 mL/min/kg
clearance [7]: 14 mL/min/kg
CL free [8]: 156 mL/min/kg
AUC(0-t) [9]: 3910 ng·h/mL
IC50 [10]: 56.3 nM
microsomal CLint at 1 µM (CYP3A4): < 0.04 µL/min/mg
AUC(0-t) [11]: 4210 ng·h/mL
ka [12]: 6.6 10^6/M/s
fraction unbound [13]: 0.48
Activity [14]: inactive
IC50 [15]: 4 nM
concentration at 72 h [16]: 267 ng/mL
Cmax [17]: 910 ng/mL
fraction unbound at 20 ug/ml [18]: 0.4
Stability [19]: Unstable
IC50 (Cytochrome P450 3A4): > 50 µM
IC50 [21]: 2.8 nM
microsomal CLint at 1 µM [22]: < 10 µL/min/mg
Activity [23]: inactive
CLH [24]: < 2 µL/min/mg
Activity [25]: 55%
Vd [26]: 2.7 L/kg
SMILES: Cc1ncn(CC(=O)N2CCN(c3sc(C(F)(F)F)nc3-c3cnc(C(F)(F)F)nc3)C[C@H]2CCO)n1
Activity (NIH3T3): Non-Toxic
inhibition (INH) [20]: Toxic
